Source: patent US5202339A, “Hydantoin derivatives” (Mochida Pharmaceutical Co., Ltd., priority 1987, dated 1993)

Tests used:
[1] = biological target: T1, rat lens aldose reductase (Rattus norvegicus, UniProt P07943); experiment: inhibitory activity on rat lens aldose reductase (Experimental Example 1); type: biochemical; details: for IC50: pH 6.2, 10 mM DL-glyceraldehyde, 0.16 mM NADPH; for potency relative to reference compound A: ratio in words
T1 construct: rat lens aldose reductase; from tissue; host or cells: rat lens
Method: The inhibitory activities of hydantoin derivatives on rat lens aldose reductase were measured according to the procedure of Inagaki et al. (K. Inagaki et al., Arch. Biochem. Biophys., 216, 337 (1982)) with slight modifications. Assays were performed in 0.1M phosphate buffer (pH 6.2) containing 0.4M ammonium sulfate, 10 mM DL-glyceraldehyde, 0.16 mM nicotinamide adenine dinucleotide phosphate, reduced form (NADPH) and aldose reductase (0.010-0.016 units) in a total volume of 1.0 ml. To this mixture was added 10 μl of the solution of each hydantoin derivative to be tested, and the decrease in absorbance at 340 nm was measured with a spectrophotometer.
The concentrations of typical hydantoin derivatives of the present invention required to produce 50% inhibition are shown in table 1.

[2] = biological target: T2, bovine lens aldose reductase (Bos taurus, UniProt P16116); experiment: inhibitory activity on bovine lens aldose reductase (Experimental Example 2); type: biochemical; details: for inhibitory activity against aldose reductase compared with reference compound B / potency compared with compound 13 and 15: in words; for IC50: pH 6.2, 10 mM DL-glyceraldehyde, 0.16 mM NADPH
T2 construct: bovine lens aldose reductase preparation was used; from tissue; host or cells: bovine lens
Method: Assays were performed in 0.1M phosphate buffer (pH 6.2) containing 0.4M ammonium sulfate, 10 mM DL-glyceraldehyde, 0.16 mM nicotinamide adenine dinucleotide phosphate, reduced form (NADPH) and aldose reductase (0.010-0.016 units) in a total volume of 1.0 ml. To this mixture was added 10 μl of the solution of each hydantoin derivative to be tested, and the decrease in absorbance at 340 nm was measured with a spectrophotometer.

[3] = tested on: Streptozotocin-Diabetic Rats; experiment: Hypoglycemic Effects in Streptozotocin-Diabetic Rats (Experimental Example 4); type: in vivo, rat (male Wistar); details: Rattus norvegicus; STZ-diabetic rats, 100 mg/kg oral, 6 hrs after administration; read-out: Lowering rate of serum glucose (%)
Method: Diabetic rats were produced according to the method of Junod et al. (A. Junod et al., J. Clin. Invest., 48, 2129 (1969)). Briefly, male Wistar rats were given 26.5 mg/kg of streptozotocin (STZ) intravenously. Four days later, the rats with serum glucose levels of between 400 and 500 mg/dl were used. After being fasted for 4 hrs, groups of 5 diabetic rats were orally administered with the compounds of the present invention or gliclazide in a dose of 100 mg/kg. Blood sample were collected from the orbital vein before and 6 hrs after the administration. Serum glucose levels were determined by the enzymatic method with an autoanalyzer (Cobas Fara®, Roche).

| Structure (SMILES) | IC50 [2] [µM] | inhibition in vivo at 100 mg/kg [3] [%] | further results |
| --- | --- | --- | --- |
| O=C1CN(S(=O)(=O)c2cc3ccccc3cc2Cl)C(=O)N1 [Compound 2, 1-(3-chloronaphthalen-2-ylsulfonyl)hydantoin] | – | – | IC50 [1]: 0.16 µM |
| O=C1CN(S(=O)(=O)c2ccc3cc(Cl)ccc3c2)C(=O)N1 [Compound 4, 1-(6-chloronaphthalen-2-ylsulfonyl)hydantoin] | – | – | IC50 [1]: 0.14 µM |
| O=C1CN(S(=O)(=O)c2ccc3ccc(Cl)cc3c2)C(=O)N1 [Compound 5, 1-(7-chloronaphthalen-2-ylsulfonyl)hydantoin] | – | – | IC50 [1]: 0.39 µM |
| O=C1CN(S(=O)(=O)c2ccc3cccc(Cl)c3c2)C(=O)N1 [Compound 6, 1-(8-chloronaphthalen-2-ylsulfonyl)hydantoin] | – | – | IC50 [1]: 0.46 µM |
| O=C1CN(S(=O)(=O)c2ccc3ccccc3c2Br)C(=O)N1 [Compound 8, 1-(1-bromonaphthalen-2-ylsulfonyl)hydantoin] | – | – | IC50 [1]: 0.094 µM |
| O=C1CN(S(=O)(=O)c2ccc3cc(Br)ccc3c2)C(=O)N1 [Compound 10, 1-(6-bromonaphthalen-2-ylsulfonyl)hydantoin] | – | – | IC50 [1]: 0.17 µM |
| O=C1CN(S(=O)(=O)c2ccc3c([N+](=O)[O-])cccc3c2)C(=O)N1 [Compound 11, 1-(5-nitronaphthalen-2-ylsulfonyl)hydantoin] | – | – | IC50 [1]: 0.1 µM |
| Cc1cc2ccccc2cc1S(=O)(=O)N1CC(=O)NC1=O [Compound 12, 1-(3-methylnaphthalen-2-ylsulfonyl)hydantoin] | – | – | IC50 [1]: 0.14 µM |
| Cc1ccc2cc(S(=O)(=O)N3CC(=O)NC3=O)ccc2c1[N+](=O)[O-] [Compound 13, 1-(6-methyl-5-nitronaphthalen-2-yl-sulfonyl)hydantoin] | 0.1 | – | IC50 [1]: 0.027 µM; potency relative to reference compound A [1]: ten times or more potent; inhibitory activity against aldose reductase compared with reference compound B [2]: stronger inhibitory activities against aldose reductase |
| Cc1ccc2ccc(S(=O)(=O)N3CC(=O)NC3=O)cc2c1 [Compound 14, 1-(7-methylnaphthalen-2-ylsulfonyl)hydantoin] | – | – | IC50 [1]: 0.35 µM |
| COc1ccc2cc(S(=O)(=O)N3CC(=O)NC3=O)ccc2c1[N+](=O)[O-] [Compound 15, 1-(6-methoxy-5-nitronaphthalen-2-yl-sulfonyl)hydantoin] | 0.23 | – | IC50 [1]: 0.038 µM; potency relative to reference compound A [1]: ten times or more potent; inhibitory activity against aldose reductase compared with reference compound B [2]: stronger inhibitory activities against aldose reductase |
| O=C1CN(S(=O)(=O)c2ccc3oc(=O)ccc3c2)C(=O)N1 [Compound 23, 1-(coumarin-6-ylsulfonyl)hydantoin] | 0.22 | – | potency compared with compound 13 and 15 [2]: as potent as compound 13 and 15 |
| O=C1CN(S(=O)(=O)c2cc3c(Cl)cc(Cl)cc3o2)C(=O)N1 [Compound 37, 1-(4,6-dichlorobenzo[b]furan-2-yl-sulfonyl)hydantoin] | 0.17 | 14.5 | – |
| O=C1CN(S(=O)(=O)c2oc3cc(Cl)cc(Cl)c3c2Br)C(=O)N1 [Compound 46, 1-(3-bromo-4,6-dichlorobenzo[b]furan-2-ylsulfonyl)hydantoin] | 0.054 | – | – |
| O=C1CN(S(=O)(=O)c2cc3cccc(F)c3o2)C(=O)N1 [Compound 48, 1-(7-fluorobenzo[b]furan-2-ylsulfonyl)hydantoin] | – | 45.9 | – |
| O=C1CN(S(=O)(=O)c2oc3c(F)cccc3c2Br)C(=O)N1 [Compound 49, 1-(3-bromo-7-fluorobenzo[b]furan-2-yl-sulfonyl)hydantoin] | – | 49.2 | – |
| O=C1CN(S(=O)(=O)c2ccc3ccccc3c2F)C(=O)N1 [Compound 50, 1-(1-fluoronaphthalen-2-ylsulfonyl)hydantoin] | – | 48.8 | – |
| O=C1CN(S(=O)(=O)c2cc3c(Br)cccc3o2)C(=O)N1 [Compound 51, 1-(4-bromobenzo[b]furan-2-ylsulfonyl)hydantoin] | – | 11 | – |
| O=C1CN(S(=O)(=O)c2cc3ccc(Br)cc3o2)C(=O)N1 [Compound 52, 1-(6-bromobenzo[b]furan-2-ylsulfonyl)hydantoin] | – | 29 | – |
| O=C1CN(S(=O)(=O)c2oc3ccccc3c2I)C(=O)N1 [Compound 53, 1-(3-iodobenzo[b]furan-2-ylsulfonyl)hydantoin] | – | 19 | – |
| O=C1CN(S(=O)(=O)c2oc3cc(Br)ccc3c2Br)C(=O)N1 [Compound 54, 1-(3,6-dibromobenzo[b]furan-2-yl-sulfonyl)hydantoin] | – | 29 | – |
| O=C1CN(S(=O)(=O)c2ccc3ccccc3c2)C(=O)N1 [Compound A, 1-(naphthalene-2-ylsulfonyl)hydantoin, reference compound] | – | – | IC50 [1]: 0.66 µM |

Second part, led by results:

| IC50 [2] [µM] | Structure (SMILES) | inhibition in vivo at 100 mg/kg [3] [%] | further results |
| --- | --- | --- | --- |
| 0.39 | O=C1CN(S(=O)(=O)c2cc3ccccc3s2)C(=O)N1 [Compound 16, 1-(benzo[b]thiophen-2-ylsulfonyl)hydantoin] | 33.5 | – |
| 0.12 | O=C1CN(S(=O)(=O)c2sc3ccccc3c2Cl)C(=O)N1 [Compound 17, 1-(3-chlorobenzo[b]thiophen-2-yl-sulfonyl)hydantoin] | – | potency compared with compound 13 and 15 [2]: as potent as compound 13 and 15 |
| 0.24 | O=C1CN(S(=O)(=O)c2cc3cc(Cl)ccc3s2)C(=O)N1 [Compound 18, 1-(5-chlorobenzo[b]thiophen-2-yl-sulfonyl)hydantoin] | – | potency compared with compound 13 and 15 [2]: as potent as compound 13 and 15 |
| 0.34 | O=C1CN(S(=O)(=O)c2nc3ccccc3s2)C(=O)N1 [Compound 22, 1-(benzothiazol-2-ylsulfonyl)hydantoin] | 15 | – |
| 0.26 | O=C1CN(S(=O)(=O)c2cc(Br)c(Br)s2)C(=O)N1 [Compound 25, 1-(4,5-dibromothiophen-2-ylsulfonyl)hydantoin] | – | – |
| 0.27 | O=C1CN(S(=O)(=O)c2cc3ccc(Cl)cc3s2)C(=O)N1 [Compound 26, 1-(6-chlorobenzo[b]thiophen-2-yl-sulfonyl)hydantoin] | 33.1 | – |
| 0.19 | O=C1CN(S(=O)(=O)c2cc3cccc(Cl)c3s2)C(=O)N1 [Compound 27, 1-(7-chlorobenzo[b]thiophen-2-yl-sulfonyl)hydantoin] | – | – |
| 0.14 | CC(C)c1c(S(=O)(=O)N2CC(=O)NC2=O)sc2ccccc12 [Compound 28, 1-(3-isopropylbenzo[b]thiophen-2-yl-sulfonyl)hydantoin] | – | – |
| 0.13 | O=C1CN(S(=O)(=O)c2sc3ccccc3c2C(F)(F)F)C(=O)N1 [Compound 29, 1-(3-trifluoromethylbenzo[b]thiophen-2-ylsulfonyl)hydantoin] | – | – |
| 0.12 | O=C1CN(S(=O)(=O)c2sc3ccccc3c2Br)C(=O)N1 [Compound 30, 1-(3-bromobenzo[b]thiophen-2-yl-sulfonyl)hydantoin] | – | – |
| 0.27 | COc1c(S(=O)(=O)N2CC(=O)NC2=O)sc2ccccc12 [Compound 31, 1-(3-methoxybenzo[b]thiophen-2-yl-sulfonyl)hydantoin] | – | – |
| 0.38 | CS(=O)(=O)c1c(S(=O)(=O)N2CC(=O)NC2=O)sc2ccccc12 [Compound 32, 1-(3-methylsulfonylbenzo[b]thiophen-2-ylsulfonyl)hydantoin] | – | – |
| 0.19 | N#Cc1c(S(=O)(=O)N2CC(=O)NC2=O)sc2ccccc12 [Compound 33, 1-(3-cyanobenzo[b]thiophen-2-yl-sulfonyl)hydantoin] | – | – |
| 0.085 | O=C1CN(S(=O)(=O)c2sc3c(F)cccc3c2Br)C(=O)N1 [Compound 34, 1-(3-bromo-7-fluorobenzo[b]thiophen-2-ylsulfonyl)hydantoin] | 13.2 | – |
| 0.3 | O=C1CN(S(=O)(=O)c2c(Cl)sc3ccccc23)C(=O)N1 [Compound 35, 1-(2-chlorobenzo[b]thiophen-3-yl-sulfonyl)hydantoin] | 14 | – |
| 0.24 | O=C1CN(S(=O)(=O)c2cc3c(I)cccc3o2)C(=O)N1 [Compound 36, 1-(4-iodobenzo[b]furan-2-ylsulfonyl)hydantoin] | – | – |
| 0.32 | O=C1CN(S(=O)(=O)c2cc3cc(F)ccc3s2)C(=O)N1 [Compound 39, 1-(5-fluorobenzo[b]thiophen-2-yl-sulfonyl)hydantoin] | 16 | – |
| 0.47 | O=C1CN(S(=O)(=O)c2nsc3ccccc23)C(=O)N1 [Compound 41, 1-(benzo[b]isothiazol-3-ylsulfonyl)hydantoin] | 23.6 | – |
| 0.27 | O=C1CN(S(=O)(=O)c2cc3cc([N+](=O)[O-])ccc3s2)C(=O)N1 [Compound 42, 1-(5-nitrobenzo[b]thiophen-2-yl-sulfonyl)hydantoin] | – | – |
| 0.4 | O=C1CN(S(=O)(=O)c2cc3cc(C(=O)O)ccc3s2)C(=O)N1 [Compound 43, 1-(5-carboxybenzo[b]thiophen-2-yl-sulfonyl)hydantoin] | – | – |
